Data reported in PMC3937211, “Serine Carboxypeptidase SCPEP1 and Cathepsin A Play Complementary Roles in Regulation of Vasoconstriction via Inactivation of Endothelin-1” (PLoS Genetics, 2014).
No end group written: not given here.

Experiments:
[1] = system: mesenteric arteries; test: Vessel reactivity ex vivo; set-up: species or system mouse; details: isolated mesenteric arteries; WT, Scpep1^−/−, CathA^S190A, DD; drugs added extraluminally
Description: Vessel reactivity ex vivo was analyzed as described, [40]. Briefly, male mice were sacrificed at five months and their mesenteric arteries were isolated and mounted onto glass capillaries in an artereograph chamber filled with cold oxygenated Krebs solution (118.6 mM NaCl, 4.7 mM KCl, 1.2 mM KH2PO4, 1.2 mM MgSO4, 25.1 mM NaHCO3, 26 µM EDTA, 0.18% glucose, 2.5 mM CaCl2). The arteries were constantly perfused intraluminally with Krebs solution at 30 mmHg. After 45 minutes of equilibration vascular reactivity was measured in response to Norepinephrine (Sigma A-0937, 10^−9–10^−5 M), Acetylcholine (Sigma A-6625, 10^−9–10^−4 M), Sodium Nitroprusside (Calbiochem 56538, 10^−9–10^−4 M), Endothelin-1 (American Peptide Company 88-1-10, 10^−11–10^−8 M) and AI, (American Peptide Company 12-1-10, 10^−8–10^−4 M). Drugs were added extraluminally with a 30 min washout period in between each drug, during which the arteries were able to re-equilibrate to a baseline. To test vasodilatation arteries were pre-contracted with NE to 70% of their equilibration diameter. At least 3 concentration response curves were conducted for each vessel and at least 6 animals were studied for each genotype.

[2] = system: MLC-2 phosphorylation in AVSMC (ETR-A, ETR-B); test: Myosin light chain 2 phosphorylation by Western blot; type: cell-based, mouse; details: WT AVSMC, 30 min pre-treatment with 2 µM antagonist, then 5 min 100 nM ET-1, 3 independent experiments
Excerpt: To verify at the molecular level if AVSMC from CathA^S190A/Scpep1^−/− mice have increased reactivity to ET-1, we studied intracellular signalling events in these cells in response to ET-1. ET-1 interacts with G-protein-associated endothelin type A (ETR-A) and type B (ETR-B) receptors on the surface of AVSMC. Activation of the receptors induces phospholipase C and increases the intracellular Ca^2+ level leading to activation of myosin light chain kinase that phosphorylates myosin light chain (MLC) [21]–[24]. This causes contraction of myosin filaments and shrinkage of the cells. We therefore, compared the level of MLC phosphorylation in AVSMC before or after treatment with ET-1 for the 4 strains of mice. AVSMC cultured overnight in serum-free medium were treated with or without 100 nM ET-1, harvested and analyzed by Western blot using antibodies against MLC-2 phosphorylated at Thr^18 and Ser^19 residues or against total MLC protein.
Figure 5 Cultured AVSMC from mice with combined CathA/Scpep1 deficiency show increased reactivity to ET-1. […] Total protein extracts were analyzed by Western blotting using antibodies specific for phosphorylated (pThr^18/Ser^19-MLC) and total MLC-2 protein. […] Total protein extracts were analyzed by Western blotting using antibodies specific for phosphorylated and total MLC-2 protein. […]

[3] = system: rats; details: induced by monocrotaline in rats; ref [33]; cited from earlier work
Excerpt: The anti-hypertensive effect of retinoic acid tre ...

[4] = product of ET-1 cleavage by CathA in vitro; ref [13], [14]; cited from earlier work
Excerpt: The bioavailability and potency of AII and ET-1 can be regulated through many factors such as alteration of receptor density and affinity, up- and down-regulation of peptide synthesis or release, enzymatic activation (ACE and ACE2 for AII, ECE and MMP-2 for ET-1 [8]), or degradation (neutral endopeptidase NEP for ET-1 [9]–[11]). Previously we have shown that circulating ET-1 is inactivated by lysosomal carboxypeptidase, cathepsin A (CathA) widely distributed in mammalian tissues (reviewed in [12]). The majority of CathA in the cell is found in the lysosome but significant pool of the e ...

Row | Compound | differences in vessel reactivity between the four groups of mice [1] | other results
1 | CC(=O)OCC[N+](C)(C)C [ACh, acetylcholine] | no differences | 
2 | BQ788 |  | effect on ET-1-induced MLC-2 phosphorylation [2]: blocked
3 | NC[C@H](O)c1ccc(O)c(O)c1 [NE, norepinephrine] | no differences | 
4 | angiotensin I (DRVYIHPFHL; Angiotensin-1; UniProt P01019 25-34, looked up) [AI, precursor of vasoconstrictive peptide AII; American Peptide Company 12-1-10] | no differences | 
5 | CC1=C(/C=C/C(C)=C/C=C/C(C)=C/C(=O)O)C(C)(C)CCC1 [all-trans retinoic acid] |  | effect on pulmonary hypertension [3]: inhibit pulmonary hypertension
6 | des-Trp21-endothelin-1 (CSCSSLMDKECVYFCHLDII; ends and bridges not checked; cysteine pairing not given here; UniProt P05305 53-72, looked up, fragment) |  | biological activity [4]: biologically inactive
